This passage reports IC50 results from patent publication US20230151003A1, “COMPOUNDS AND METHODS OF USE” (Exelixis, Inc., priority 2020, published 2023).

Molecules are shown by their SMILES.

For one assay, the target named is T1, AXL (Homo sapiens, UniProt P30530).
T1 construct: endogenous in cells; host or cells: A-172 glioblastoma cells (ATCC #CRL-1620)
T1 sequence (P30530 26-894): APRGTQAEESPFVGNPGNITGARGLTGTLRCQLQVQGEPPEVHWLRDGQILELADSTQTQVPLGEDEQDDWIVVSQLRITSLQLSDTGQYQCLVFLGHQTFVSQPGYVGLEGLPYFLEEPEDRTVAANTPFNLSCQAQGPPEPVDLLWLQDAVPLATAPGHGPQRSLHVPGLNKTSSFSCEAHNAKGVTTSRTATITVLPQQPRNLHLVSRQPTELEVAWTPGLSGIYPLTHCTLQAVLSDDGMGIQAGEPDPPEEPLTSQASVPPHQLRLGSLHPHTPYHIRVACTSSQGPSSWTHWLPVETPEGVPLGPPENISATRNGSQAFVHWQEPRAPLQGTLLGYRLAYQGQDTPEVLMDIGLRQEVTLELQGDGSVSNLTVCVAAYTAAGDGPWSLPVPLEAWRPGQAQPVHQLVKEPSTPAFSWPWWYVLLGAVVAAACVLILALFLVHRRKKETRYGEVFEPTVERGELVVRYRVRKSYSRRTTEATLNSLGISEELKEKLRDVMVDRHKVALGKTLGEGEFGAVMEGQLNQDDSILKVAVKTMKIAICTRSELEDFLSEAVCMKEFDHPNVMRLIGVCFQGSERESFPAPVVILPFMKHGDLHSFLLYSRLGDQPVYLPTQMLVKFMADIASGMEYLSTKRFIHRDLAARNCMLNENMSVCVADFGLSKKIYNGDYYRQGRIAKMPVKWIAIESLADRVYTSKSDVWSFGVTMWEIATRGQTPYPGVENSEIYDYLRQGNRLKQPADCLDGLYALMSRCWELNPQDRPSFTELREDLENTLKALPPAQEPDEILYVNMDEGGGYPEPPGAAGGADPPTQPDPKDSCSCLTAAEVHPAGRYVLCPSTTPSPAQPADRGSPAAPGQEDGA
In words: AXL autophosphorylation ELISA in A-172 cells. It counts as cell-based. The settings on record: Table 3 Cellular Activities, Gas6-stimulated, phospho-AXL ELISA. An outline of the steps:
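A-172 glioblastoma cells serum-starved 24 h, treated 1 h with compounds (8-point dose curve, 0.3% DMSO), then stimulated with 1 μg/mL Gas6 for 15 min. Lysate phospho-AXL quantified by ELISA against a standard; IC50 from 4-parameter logistic fit, normalised to DMSO and reference-inhibitor controls.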
On the technique in general: ELISA stands for enzyme-linked immunosorbent assay.

In a further assay the target is Met (Homo sapiens, UniProt P08581). As to the kind of experiment: Met autophosphorylation ELISA in PC-3 cells. It counts as cell-based. The arrangement: endogenous in cells; host or cells: PC-3 prostate cancer cells (ATCC #CRL-1435). The settings on record: Table 3 Cellular Activities, HGF-stimulated, phospho-Met ELISA, read-out: c-Met IC50. In outline: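 Serum-starved (3 h) PC-3 cells pre-incubated 1 h with compound (8-point dose curve, 0.3% DMSO), then stimulated with 100 ng/mL recombinant human HGF for 10 min. Lysate phospho-Met (panTyr) measured by sandwich ELISA; IC50 from 4-parameter logistic fit, normalised to DMSO (100%) and reference-inhibitor (0%) controls.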
Chain of Met (P08581 25-1390): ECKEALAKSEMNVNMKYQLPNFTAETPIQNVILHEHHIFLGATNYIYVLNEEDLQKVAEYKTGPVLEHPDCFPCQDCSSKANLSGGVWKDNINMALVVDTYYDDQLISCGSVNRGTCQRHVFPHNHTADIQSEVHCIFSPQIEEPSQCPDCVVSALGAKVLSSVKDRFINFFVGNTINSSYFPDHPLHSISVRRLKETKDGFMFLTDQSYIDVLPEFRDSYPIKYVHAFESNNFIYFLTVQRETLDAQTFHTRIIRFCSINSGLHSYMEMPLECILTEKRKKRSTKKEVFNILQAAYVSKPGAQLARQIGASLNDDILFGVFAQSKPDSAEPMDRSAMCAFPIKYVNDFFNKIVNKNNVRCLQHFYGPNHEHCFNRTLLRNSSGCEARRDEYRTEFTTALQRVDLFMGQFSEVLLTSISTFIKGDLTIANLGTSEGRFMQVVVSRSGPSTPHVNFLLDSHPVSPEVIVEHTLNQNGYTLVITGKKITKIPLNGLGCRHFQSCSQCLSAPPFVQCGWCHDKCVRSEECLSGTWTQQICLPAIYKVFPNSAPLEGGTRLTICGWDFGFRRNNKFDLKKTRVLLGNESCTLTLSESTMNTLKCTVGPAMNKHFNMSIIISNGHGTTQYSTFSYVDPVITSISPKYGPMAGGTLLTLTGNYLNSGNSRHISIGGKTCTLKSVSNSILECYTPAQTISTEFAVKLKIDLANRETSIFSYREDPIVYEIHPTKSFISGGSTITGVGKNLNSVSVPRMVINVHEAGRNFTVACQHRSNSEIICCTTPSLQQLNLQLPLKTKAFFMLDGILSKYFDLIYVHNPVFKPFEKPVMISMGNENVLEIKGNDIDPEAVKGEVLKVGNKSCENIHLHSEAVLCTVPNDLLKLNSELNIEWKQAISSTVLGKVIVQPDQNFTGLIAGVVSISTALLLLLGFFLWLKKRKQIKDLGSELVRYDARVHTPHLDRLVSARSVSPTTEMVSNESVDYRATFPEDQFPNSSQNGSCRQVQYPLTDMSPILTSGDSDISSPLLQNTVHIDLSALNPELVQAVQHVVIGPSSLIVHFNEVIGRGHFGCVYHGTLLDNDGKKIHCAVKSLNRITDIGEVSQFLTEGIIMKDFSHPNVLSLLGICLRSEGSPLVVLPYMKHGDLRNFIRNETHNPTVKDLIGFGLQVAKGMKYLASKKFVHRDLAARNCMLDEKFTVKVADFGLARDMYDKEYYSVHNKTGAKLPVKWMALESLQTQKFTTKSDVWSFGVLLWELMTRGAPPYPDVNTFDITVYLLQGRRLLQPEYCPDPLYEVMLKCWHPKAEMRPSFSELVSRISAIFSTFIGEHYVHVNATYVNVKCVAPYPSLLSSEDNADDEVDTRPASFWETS

Take `CCc1c(C(=O)Nc2ccc(Oc3ccnc4cc(OC)c(OC)nc34)c(F)c2)c(=O)c(-c2ccco2)c(C)n1C` [Compound 324, N-[4-[(6,7-Dimethoxy-1,5-naphthyridin-4-yl)oxy]-3-fluorophenyl]-2-ethyl-5-(furan-2-yl)-1,6-dimethyl-4-oxopyridine-3-carboxamide]: the half-inhibitory concentration (IC50) against AXL and at Met was ≤ 0.1 µM throughout.
For `COc1cnc2c(Oc3ccc(NC(=O)c4cc(C(C)=O)c(C)n(-c5ccco5)c4=O)cc3F)ccnc2c1` [Compound 238, 5-Acetyl-N-[3-fluoro-4-[(7-methoxy-1,5-naphthyridin-4-yl)oxy]phenyl]-1-(furan-2-yl)-6-methyl-2-oxopyridine-3-carboxamide], the IC50 (commonly the midpoint of a concentration-inhibition curve) lay within 0.1 to 0.3 µM on AXL and 0.3 to 1 µM on Met.
For `COc1cc2nccc(Oc3ccc(NC(=O)c4ncc(C)n(-c5ccc(F)cn5)c4=O)cc3F)c2nc1OC` [Compound 219, N-[4-[(6,7-Dimethoxy-1,5-naphthyridin-4-yl)oxy]-3-fluorophenyl]-4-(5-fluoropyridin-2-yl)-5-methyl-3-oxopyrazine-2-carboxamide], in that order: ≤ 0.1 µM and ≤ 0.1 µM.
For `COc1cnc2c(Oc3ccc(NC(=O)c4cc(C(C)=O)c(C)n(-c5ccoc5)c4=O)cc3F)ccnc2c1` [Compound 240, 5-Acetyl-N-[3-fluoro-4-[(7-methoxy-1,5-naphthyridin-4-yl)oxy]phenyl]-1-(furan-3-yl)-6-methyl-2-oxopyridine-3-carboxamide] the same measures were ≤ 0.1 µM and 0.3 to 1 µM.
For `COc1cc(-n2c(C)ccc(C(=O)Nc3ccc(Oc4ccnc5cc(OC)c(OC)nc45)c(F)c3)c2=O)ccn1` [Compound 226, N-[4-[(6,7-Dimethoxy-1,5-naphthyridin-4-yl)oxy]-3-fluorophenyl]-1-(2-methoxypyridin-4-yl)-6-methyl-2-oxopyridine-3-carboxamide], in that order: ≤ 0.1 µM and ≤ 0.1 µM.
For the compound `Cc1ccc(C(=O)Nc2ccc(Oc3ccnc4cnc(Cl)cc34)c(F)c2)c(=O)n1-c1ccc(F)cn1` [Compound 54A, N-[4-[(6-Chloro-1,7-naphthyridin-4-yl)oxy]-3-fluorophenyl]-1-(5-fluoropyridin-2-yl)-6-methyl-2-oxopyridine-3-carboxamide], the results for the IC50 against AXL and at Met were 0.1 to 0.3 µM and ≤ 0.1 µM, respectively.
On to `COCc1nc(C)c(-c2ccc(F)cn2)c(O)c1C(=O)Nc1ccc(Oc2ccnc3cc(OC)c(OC)nc23)c(F)c1` [Compound 214, N-[4-[(6,7-Dimethoxy-1,5-naphthyridin-4-yl)oxy]-3-fluorophenyl]-5-(5-fluoropyridin-2-yl)-4-hydroxy-2-(methoxymethyl)-6-methylpyridine-3-carboxamid], for which the IC50 on AXL and at Met was ≤ 0.1 µM in each case.
On to `COc1cc2nccc(Oc3ccc(NC(=O)c4cnc(C)c(-c5ccco5)c4O)cc3F)c2cc1OC` [Compound 259, N-[4-(6,7-Dimethoxyquinolin-4-yl)oxy-3-fluorophenyl]-5-(furan-2-yl)-4-hydroxy-6-methylpyridine-3-carboxamide], for which the IC50 against AXL and at Met was ≤ 0.1 µM throughout.
In the case of `COc1cc2nccc(Oc3ccc(NC(=O)c4ccc(C)n(-c5cc[n+]([O-])cc5)c4=O)cc3F)c2nc1OC` [Compound 231, N-[4-[(6,7-Dimethoxy-1,5-naphthyridin-4-yl)oxy]-3-fluorophenyl]-6-methyl-1-(1-oxidopyridin-1-ium-4-yl)-2-oxopyridine-3-carboxamide], the 50% inhibitory concentration (IC50) against AXL and at Met was ≤ 0.1 µM each time.
For the compound `COc1cc2nccc(Oc3ccc(NC(=O)c4cc(C(C)=O)c(C)n(-c5ccco5)c4=O)cc3)c2nc1OC` [Compound 237, 5-Acetyl-N-[4-[(6,7-dimethoxy-1,5-naphthyridin-4-yl)oxy]phenyl]-1-(furan-2-yl)-6-methyl-2-oxopyridine-3-carboxamide], the IC50 was ≤ 0.1 µM on AXL and 0.3 to 1 µM on Met.
For `COc1cc2nccc(Oc3ccc(NC(=O)c4nnc(C)c(-c5ccc(F)cn5)c4OC)cc3F)c2nc1OC` [Compound 215, N-[4-[(6,7-Dimethoxy-1,5-naphthyridin-4-yl)oxy]-3-fluorophenyl]-5-(5-fluoropyridin-2-yl)-4-methoxy-6-methylpyridazine-3-carboxamide] the same measures were ≤ 0.1 µM and ≤ 0.1 µM.
For `COc1cc2nccc(Oc3ccc(NC(=O)c4ccc(C)n(-c5ccncc5F)c4=O)cc3F)c2nc1OC` [Compound 220, N-[4-[(6,7-Dimethoxy-1,5-naphthyridin-4-yl)oxy]-3-fluorophenyl]-1-(3-fluoropyridin-4-yl)-6-methyl-2-oxopyridine-3-carboxamide] the same measures were ≤ 0.1 µM and ≤ 0.1 µM.
For `COc1cc2nccc(Oc3ccc(NC(=O)c4cc(C(C)=O)c(C)n(-c5ccoc5)c4=O)cc3F)c2nc1OC` [Compound 235, 5-Acetyl-N-[4-[(6,7-dimethoxy-1,5-naphthyridin-4-yl)oxy]-3-fluorophenyl]-1-(furan-3-yl)-6-methyl-2-oxopyridine-3-carboxamide], in that order: ≤ 0.1 µM and ≤ 0.1 µM.
With `COc1cc2nccc(Oc3ccc(NC(=O)c4c5n(cc(-c6ccoc6)c4=O)CCOC5)cc3F)c2nc1OC` [Compound 306, N-[4-[(6,7-Dimethoxy-1,5-naphthyridin-4-yl)oxy]-3-fluorophenyl]-7-(furan-3-yl)-8-oxo-3,4-dihydro-1H-pyrido[2,1-c][1,4]oxazine-9-carboxamide], the IC50 at AXL and at Met was ≤ 0.1 µM throughout.
As to `COc1cc2nccc(Oc3ccc(NC(=O)c4ccc(C)n(-c5cccnn5)c4=O)cc3F)c2nc1OC` [Compound 234, N-[4-[(6,7-Dimethoxy-1,5-naphthyridin-4-yl)oxy]-3-fluorophenyl]-6-methyl-2-oxo-1-pyridazin-3-ylpyridine-3-carboxamide], the IC50 on AXL and on Met was ≤ 0.1 µM throughout.
As for `COc1cc2nccc(Oc3ccc(NC(=O)c4ccc(C)n(-c5cccnc5)c4=O)cc3F)c2nc1OC` [Compound 222, N-[4-[(6,7-Dimethoxy-1,5-naphthyridin-4-yl)oxy]-3-fluorophenyl]-6-methyl-2-oxo-1-pyridin-3-ylpyridine-3-carboxamide], the IC50 against AXL and at Met was ≤ 0.1 µM each time.
With `COc1ccc2nccc(Oc3ccc(NC(=O)c4ccc(C)n(-c5ncc(F)cc5C)c4=O)cc3F)c2n1` [Compound 53, N-[3-Fluoro-4-[(6-methoxy-1,5-naphthyridin-4-yl)oxy]phenyl]-1-(5-fluoro-3-methylpyridin-2-yl)-6-methyl-2-oxopyridine-3-carboxamide], the IC50 against AXL and at Met was ≤ 0.1 µM in each case.
In the case of `COc1cc2nccc(Oc3ccc(NC(=O)c4c(C)nc(C)c(-c5ccc(F)cn5)c4O)cc3)c2nc1OC` [Compound 216, N-[4-[(6,7-Dimethoxy-1,5-naphthyridin-4-yl)oxy]phenyl]-5-(5-fluoropyridin-2-yl)-4-hydroxy-2,6-dimethylpyridine-3-carboxamide], the IC50 on AXL and at Met was ≤ 0.1 µM in each case.
For `COc1cc2nccc(Oc3ccc(NC(=O)c4c(C)n(C)c(C)c(-c5coc6ccccc56)c4=O)cc3F)c2nc1OC` [Compound 262, 5-(1-Benzofuran-3-yl)-N-[4-[(6,7-dimethoxy-1,5-naphthyridin-4-yl)oxy]-3-fluorophenyl]-1,2,6-trimethyl-4-oxopyridine-3-carboxamide], the figures for the IC50 against AXL and at Met were ≤ 0.1 µM and 0.3 to 1 µM, respectively.
For `COc1cc2nccc(Oc3ccc(NC(=O)c4cn(CCF)c(C)c(-c5cccs5)c4=O)cc3F)c2nc1OC` [Compound 327, N-[4-[(6,7-Dimethoxy-1,5-naphthyridin-4-yl)oxy]-3-fluorophenyl]-1-(2-fluoroethyl)-6-methyl-4-oxo-5-thiophen-2-ylpyridine-3-carboxamide], in that order: ≤ 0.1 µM and ≤ 0.1 µM.
